Test results as given in US20250263426A1, “PDE4B INHIBITOR AND USE THEREOF” (Xizang Haisco Pharmaceutical Co., Ltd., priority 2022, published 2025).
Like-named read-outs stand apart in the source and are kept apart here.

Columns and labels:
PDE4B1 = PDE4B1 (Homo sapiens (Human), UniProt Q07343); experiment: Effect of compounds on PDE4B1 activity (IMAP fluorescence polarization kit); type: biochemical
Method: The effect of compounds on PDE4B1 activity was detected using a fluorescence polarization kit (IMAP FP IPP Explorer KIT, Molecular Device, Cat #R8124). The IMAP Reaction Buffer containing 0.1% BSA (5×) in the kit was diluted into a 1-fold reaction buffer containing 1 mM DTT. 0.12 nM PDE4B1 (BPS, Cat #60041) was added to the 1-fold reaction buffer to form a 2-fold enzyme solution. 10 μL of the 2-fold enzyme solution was added to wells of a 384-well reaction plate. For the negative control well, 10 μL of the 1-fold reaction buffer was used instead of the enzyme solution. Centrifugation at 1000 rpm for 1 minute and incubation at room temperature for 15 minutes were carried out. 0.2 uM FAM-labeled cAMP (FAM-cAMP, Molecular Device, Cat #R7506) was added to the 1-fold reaction buffer to form a 2-fold substrate solution. 10 μL of the 2-fold substrate solution was added to each well of the 384-well reaction plate. Centrifugation at 1000 rpm for 1 minute was carried out. A reaction was carried out at room temperature for 20 minutes. IMAP Progressive Binding Buffer A (5×), IMAP Progressive Binding Buffer B (5×), and IMAP Progressive Binding Reagent (provided by IMAP FP IPP Explorer Kit) were prepared into a reaction stop solution according to the instructions for use. 60 μL of an […] reaction stop solution was added to each well of the 384-well reaction plate to stop the reaction, and the reaction product was centrifuged at 1000 rpm for 1 minute. Incubation at room temperature in the dark for 60 minutes was carried out. The mP values (Ex480/Em535 (s), Em535 (p)) were read by a microplate reader (Envision).
FP was usually represented by mP value. mP value for FP measurement=1000*(S−G*P)/(S+G*P) • S: fluorescence intensity in parallel direction • P: fluorescence intensity in perpendicular direction • G: G factor=1
(§1) [formula] • mP(sample): mP of the test compound in a reaction well • mP(negative control): mP in the negative control well • mP(positive control): mP in the positive control well
According to the calculated inhibition rate at each concentration, the IC50 value of each compound was calculated by XLFit excel add-in version 5.4.0.8 software.

PDE4D2 = PDE4D2 (Homo sapiens (Human), UniProt Q08499); experiment: Effect of compounds on PDE4D2 activity (fluorescence polarization kit); type: biochemical
Chain of PDE4D2 (Q08499 303-809, change not shown): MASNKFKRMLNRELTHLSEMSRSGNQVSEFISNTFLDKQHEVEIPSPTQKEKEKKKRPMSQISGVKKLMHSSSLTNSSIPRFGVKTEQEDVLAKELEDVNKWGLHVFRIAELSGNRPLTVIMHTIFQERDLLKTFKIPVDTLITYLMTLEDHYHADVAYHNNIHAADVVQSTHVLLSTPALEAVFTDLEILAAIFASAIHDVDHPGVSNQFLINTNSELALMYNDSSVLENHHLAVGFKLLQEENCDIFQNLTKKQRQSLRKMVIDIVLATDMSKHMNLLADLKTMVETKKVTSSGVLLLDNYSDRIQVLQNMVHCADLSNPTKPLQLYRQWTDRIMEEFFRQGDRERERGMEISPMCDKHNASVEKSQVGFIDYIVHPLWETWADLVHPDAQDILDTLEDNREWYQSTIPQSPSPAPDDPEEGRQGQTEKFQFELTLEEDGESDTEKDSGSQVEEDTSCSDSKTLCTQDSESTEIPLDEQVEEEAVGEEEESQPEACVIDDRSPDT
Method: FP was usually represented by mP value.
[formula] • I∥ (S520): fluorescence intensity in parallel direction • I⊥ (P520): fluorescence intensity in perpendicular direction • G: G factor=1
as §1
According to the calculated inhibition rate at each concentration, the IC50 value of each compound was calculated by GraphPad Prism 8 software.

[1] = system: human peripheral blood mononuclear cells (TNF-α release); experiment: Inhibition of LPS-induced TNF-α release from human peripheral blood mononuclear cells in vitro; type: cell-based; details: 4 h; for IC50: read-out: Re IC50; for Emax: read-out: Max inhibition (%)
Method: 5. Detection of Inhibitory Activity of Compounds on the Release of Tumor Necrosis Factor-α (TNF-α) from Human Peripheral Blood Mononuclear Cells Induced by Lipopolysaccharide (LPS) In Vitro
The concentration of hPBMC cells was adjusted to 0.25×10^6 cells/mL with RPMI1640 medium and inoculated into a 96-well plate in an amount of 50000 cells per well. […] Incubation was carried out for 4 h in an incubator at 37° C. and 5% CO2. The cell supernatant was collected, and the content of TNF-α in the supernatant sample was detected by human TNF-α Elisa quantitative test kit (Sino Biological, Cat #KIT10602). The IC50 value was calculated using GraphPad Prism software.

[2] = Pharmacokinetic test in mice; type: in vivo, ICR mice; details: for half-life: read-out: T½ (converted)
Method: 6.1 Experimental animals: Male ICR mice, 20-25 g, 6 mice/compound, purchased from Chengdu Ddossy Experimental Animals Co., Ltd.
6.2 Experiment design: On the day of the experiment, 6 ICR mice were randomly grouped according to their body weights. The animals were fasted with water available for 12 to 14 h one day before the administration and were fed 4 h after the administration.

[3] = Pharmacokinetic test in beagle dogs; type: in vivo; details: for half-life: read-out: T½ (converted)
Method: 8.1 Experimental animals: Male beagle dogs, about 8-11 kg, 6 beagle dogs/compound, purchased from Beijing Marshall Biotechnology Co., Ltd.
8.2 Experimental method: On the day of the experiment, 6 beagle dogs were randomly grouped according to their body weights. The animals were fasted with water available for 12 to 14 h one day before the administration and were fed 4 h after the administration. Administration was carried out according to Table 10.

PDE4B2 = PDE4B2 (Homo sapiens (Human), UniProt Q07343); experiment: Effect of compounds on PDE4B2 activity (fluorescence polarization kit)
Chain of PDE4B2 (Q07343 other isoform, or with tags, fused parts or gaps): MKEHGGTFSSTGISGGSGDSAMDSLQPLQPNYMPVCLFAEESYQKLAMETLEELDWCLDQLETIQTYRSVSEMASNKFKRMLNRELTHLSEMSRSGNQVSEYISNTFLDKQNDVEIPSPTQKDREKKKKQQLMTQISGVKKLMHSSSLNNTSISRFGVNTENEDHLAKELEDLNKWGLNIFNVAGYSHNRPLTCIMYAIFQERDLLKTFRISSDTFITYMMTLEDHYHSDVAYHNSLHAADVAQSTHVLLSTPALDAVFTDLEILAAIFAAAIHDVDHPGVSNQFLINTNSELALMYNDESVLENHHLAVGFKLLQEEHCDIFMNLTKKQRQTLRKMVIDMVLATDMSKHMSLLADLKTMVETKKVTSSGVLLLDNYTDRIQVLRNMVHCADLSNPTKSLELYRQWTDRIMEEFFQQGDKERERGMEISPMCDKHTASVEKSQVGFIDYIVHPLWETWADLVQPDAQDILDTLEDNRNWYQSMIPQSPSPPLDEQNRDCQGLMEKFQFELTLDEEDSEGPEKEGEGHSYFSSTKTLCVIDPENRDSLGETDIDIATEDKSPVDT
Source text: [formula] • I∥ (S535): fluorescence intensity in parallel direction • I⊥ (P535): fluorescence intensity in perpendicular direction • G: G factor=1

[4] = Pharmacokinetic test in rats; type: in vivo; details: male, SD
Method: 7.1 Experimental animals: Male SD rats, about 220 g, 6-8 weeks old, 6 rats/compound, purchased from Chengdu Ddossy Experimental Animals Co., Ltd.
7.2 Experiment design: On the day of the experiment, 6 SD rats were randomly grouped according to their body weights. The animals were fasted with water available for 12 to 14 h one day before the administration and were fed 4 h after the administration.

[5] = Homo sapiens, PBMC, hPBMC, 100 ng/mL LPS
[6] = male, ICR, iv, mouse plasma, i.v. 2.5 mg/kg
[7] = male, ICR, po, mouse plasma, i.g. 10 mg/kg
[8] = male, iv, beagle dog plasma, i.v. 1 mg/kg
[9] = male, po, beagle dog plasma, i.g. 3 mg/kg
[10] = relative IC50, hPBMC, 100 ng/mL LPS

Chain of PDE4B1 (Q07343 whole entry): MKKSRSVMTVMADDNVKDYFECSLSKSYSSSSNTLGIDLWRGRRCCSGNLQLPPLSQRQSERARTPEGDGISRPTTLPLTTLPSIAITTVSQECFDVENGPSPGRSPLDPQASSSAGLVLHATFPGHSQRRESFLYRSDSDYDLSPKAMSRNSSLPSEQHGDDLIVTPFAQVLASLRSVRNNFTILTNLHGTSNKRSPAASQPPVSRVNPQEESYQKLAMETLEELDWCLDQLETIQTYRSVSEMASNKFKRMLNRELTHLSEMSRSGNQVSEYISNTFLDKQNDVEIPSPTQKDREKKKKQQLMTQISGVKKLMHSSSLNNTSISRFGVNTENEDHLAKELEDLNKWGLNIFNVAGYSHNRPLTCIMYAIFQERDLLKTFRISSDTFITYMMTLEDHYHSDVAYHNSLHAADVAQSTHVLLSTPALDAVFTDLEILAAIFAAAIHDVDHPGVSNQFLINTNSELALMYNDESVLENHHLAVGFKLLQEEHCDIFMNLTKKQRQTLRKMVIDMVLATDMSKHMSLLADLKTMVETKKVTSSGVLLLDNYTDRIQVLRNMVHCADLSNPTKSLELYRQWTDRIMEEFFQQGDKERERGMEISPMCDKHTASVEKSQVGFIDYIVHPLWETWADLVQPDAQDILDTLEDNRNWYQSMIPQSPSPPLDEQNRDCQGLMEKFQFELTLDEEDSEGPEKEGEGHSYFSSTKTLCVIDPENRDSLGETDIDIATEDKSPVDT

SMILES	IC50 (PDE4B1)	IC50 (PDE4D2)	IC50 ([1]; Homo sapiens, PBMC)	IC50 (PDE4B2)	Emax [1, 5]	IC50 (PDE4B2; read-out: PDE4B2 IC50)	Max inhibition (%) ([1]; hPBMC, 100 ng/mL LPS)	IC50 [1, 10]	other results
[O-][S@+]1CCCc2nc(N3CCC(c4ccc(Cl)cc4)CC3)nc(NC3(CO)CCC3)c21 [Compound 10-2]	0.01 to 0.05 µM								
[O-][S+]1CCCc2nc(N3CCC(c4ncc(Cl)cn4)CC3)nc(NC3(CO)CCC3)c21 (centres unmarked) [Compound 3]	< 0.01 µM	< 0.01 µM				0.01 to 0.05 µM			
[O-][S@@+]1CCCc2nc(N3CCN(c4ccc(Cl)cc4)CC3)nc(NC3(CO)CCC3)c21 [Compound 11-1]	< 0.01 µM	0.01 to 0.05 µM							
NC(=O)OCC1(Nc2nc(N3CC=C(c4nc5ccccc5o4)CC3)nc3c2[S@+]([O-])CC3)CCC1 [Compound 49]		< 0.01 µM				< 0.01 µM	73.46%	< 0.01 µM	
C#Cc1cnc(C2=CCN(c3nc4c(c(Nc5cccc(F)c5)n3)[S@+]([O-])CC4)CC2)nc1 [Compound 36-1]		< 0.01 µM				< 0.01 µM	73.52%	< 0.01 µM	
C#Cc1cnc(C2=CCN(c3nc4c(c(NC5([C@@H](C)O)CCC5)n3)[S@+]([O-])CC4)CC2)nc1 [Compound 96-1]		0.01 to 0.05 µM				< 0.01 µM	72.83%	< 0.01 µM	
C#Cc1ccc(C2=CCN(c3nc4c(c(NC5([C@H](C)O)CCC5)n3)[S@+]([O-])CC4)CC2)nc1 [Compound 95-2]		< 0.01 µM				< 0.01 µM	70.67%	< 0.01 µM	

The next lines start with results.

IC50 (PDE4B1)	IC50 (PDE4D2)	IC50 ([1]; Homo sapiens, PBMC)	IC50 (PDE4B2)	SMILES	Emax [1, 5]	IC50 (PDE4B2; read-out: PDE4B2 IC50)	Max inhibition (%) ([1]; hPBMC, 100 ng/mL LPS)	IC50 [1, 10]	other results
< 0.01 µM	< 0.01 µM			[O-][S@@+]1CCCc2nc(N3CC=C(c4ccc(Cl)cc4)CC3)nc(NC3(CO)CCC3)c21 [Compound 8-2]					
	< 0.01 µM	< 0.01 µM	< 0.01 µM	CC(C)(COC(N)=O)Nc1nc(N2CC=C(c3ncc(Cl)cn3)CC2)nc2c1[S@+]([O-])CC2 [Compound 51]	69%				AUC(0-t) [2, 6]: 5420 ± 926 ng·h/mL; clearance [2, 6]: 7.81 ± 1.4 mL/min/kg; half-life [2, 6]: 2.82 ± 0.23 h; Vd ([2]; male, ICR, iv, mouse plasma, i.v. 2.5 mg/kg, read-out: Vdss): 1.29 ± 0.039 L/kg; AUC(0-t) [2, 7]: 30100 ± 5360 ng·h/mL; half-life [2, 7]: 3.33 ± 0.58 h; F ([2]; mouse, i.g. 10 mg/kg): >98%; F ([3]; beagle dog, i.g. 3 mg/kg): 74.9 ± 11%; AUC(0-t) [3, 8]: 4990 ± 239 ng·h/mL; clearance [3, 8]: 3.06 ± 0.18 mL/min/kg; half-life [3, 8]: 12.8 ± 3.8 h; Vd ([3]; male, iv, beagle dog plasma, i.v. 1 mg/kg, read-out: Vdss): 3.08 ± 0.61 L/kg; AUC(0-t) [3, 9]: 11200 ± 1710 ng·h/mL; half-life [3, 9]: 16.1 ± 5.5 h
< 0.01 µM	< 0.01 µM			[O-][S@@+]1CCCc2nc(N3CC=C(c4ncc(Cl)cn4)CC3)nc(NC3(CO)CCC3)c21 [Compound 9-2]			69.47%	0.01 to 0.05 µM	
	< 0.01 µM	< 0.01 µM	< 0.01 µM	CC(C)(COC(N)=O)Nc1nc(N2CC=C(c3ncc(C4CC4)cn3)CC2)nc2c1[S@+]([O-])CC2 [Compound 84]	68%				AUC(0-t) ([4]; iv, rat plasma, i.v. 2.5 mg/kg): 16500 ng·h/mL; clearance ([4]; iv, rat plasma, i.v. 2.5 mg/kg): 2.54 ± 0.32 mL/min/kg; Vd ([4]; iv, rat plasma, i.v. 2.5 mg/kg, read-out: Vdss): 0.324 ± 0.012 L/kg; bioavailability ([4]; plasma, po, rat, i.g. 10 mg/kg): 78.9 ± 32%; AUC(0-t) ([4]; po, rat plasma, i.g. 10 mg/kg): 52200 ng·h/mL
	< 0.01 µM			COC(=O)NCC(C)(C)Nc1nc(N2CC=C(c3ncc(Cl)cn3)CC2)nc2c1[S@+]([O-])CC2 [Compound 88]		< 0.01 µM	74.9%	< 0.01 µM	
	0.01 to 0.05 µM	0.01 to 0.05 µM	0.01 to 0.05 µM	COC(=O)NCC(C)(C)Nc1nc(N2CC=C(c3ncc(C4CC4)cn3)CC2)nc2c1[S@+]([O-])CC2 [Compound 117]	86%				
	< 0.01 µM	< 0.01 µM	< 0.01 µM	C#Cc1cnc(C2=CCN(c3nc4c(c(NC5(COC(N)=O)CCC5)n3)[S@+]([O-])CC4)CC2)nc1 [Compound 35]	85.1%				
	< 0.01 µM	< 0.01 µM	< 0.01 µM	CC#Cc1ccc(C2=CCN(c3nc4c(c(NC(C)(C)COC(N)=O)n3)[S@+]([O-])CC4)CC2)nc1 [Compound 101]	80%				
